Source: patent US20250059156A1, “THERAPEUTIC ALKALOID COMPOUNDS” (Sensorium Therapeutics, Inc., priority 2022, published 2025)

Columns and labels:
PDE4A1A = PDE4A1A (Homo sapiens (Human), UniProt P27815); experiment: PDE4 percent inhibition assay; type: biochemical; settings: for inhibition at 10 µM: read-out: PDE4 Isoform % Inhibition @ 10 μM PDE4A1A
Protocol: (§1) PDE4 assay kit (BPS Bioscience, San Diego, CA), as described below.
(§2) • 1) Dilute 20 μM FAM-Cyclic-3′, 5′-AMP stock 100-fold with PDE buffer to make a 200 nM solution. Make only sufficient quantity needed for the assay; store remaining 20 μM stock solution in aliquots at −20° C. • 2) Add 25 μl of FAM-Cyclic-3′,5′-AMP (200 nM) to each well designated “Positive Control”, “Test Inhibitor”, and “Substrate Control”. • 3) Add 20 μl of PDE assay buffer to each well designated “Substrate Control” and 45 μl of PDE assay buffer to each well designated “Blank”. • 4) Add 5 μl of inhibitor solution to each well designated “Test Inhibitor”. For the wells labeled “Positive Control”, “Substrate Control” and “Blank”, add 5 μl of the same solution without inhibitor (inhibitor buffer). • 5) Thaw PDE on ice. Upon first thaw, briefly spin tube containing enzyme to recover the full contents of the tube. • 6) Dilute PDE4 in PDE buffer to 7.5 pg/μl (0.15 ng/reaction)*. Initiate reaction by adding 20 μl of PDE4 (7.5 pg/μl) to the wells designated “Positive Control” and “Test Inhibitor.” • 7) Incubate at room temperature for 1 hour.
(§3) • 1) Mix binding agent thoroughly and dilute binding agent 1:100 with binding agent diluent. • 2) Add 100 μl diluted binding agent to each microwell. Incubate at room temperature for 1 hour with slow shaking. • 3) Read the fluorescent polarization of the sample in a microtiter-plate reader equipped for the measurement of fluorescence polarization, capable of excitation at wavelengths ranging from 485±5 nm and detection of emitted light ranging from 528±10 nm. Blank value is subtracted from all other values.
(§4) 100 µM dilutions of the test compounds were prepared in assay buffer (10% DMSO concentration) and 5 μl of the dilution was added to a 50 μl reaction so that the final concentration of DMSO is 1% in all of reactions.
(§5) The enzymatic reactions were conducted at room temperature for 60 minutes in a 50 μl mixture containing PDE assay buffer, 100 nM FAM-cAMP, a PDE enzyme and the test compound.
(§6) After the enzymatic reaction, 100 Is of a binding solution (1:100 dilution of the binding agent with the binding agent diluent) was added to each reaction and the reaction was performed at room temperature for 60 minutes.
(§7) Fluorescence intensity was measured at an excitation of 485 nm and an emission of 528 nm using a Tecan Infinite M1000 microplate reader.

PDE4D2 = PDE4D2 (Homo sapiens (Human), UniProt Q08499); experiment: PDE4 percent inhibition assay; type: biochemical; settings: for inhibition at 10 µM: read-out: PDE4 Isoform % Inhibition @ 10 μM PDE4D2
Protocol: as §1, §2, §3, §4, §5, §6, §7

PDE4B2 = PDE4B2 (Homo sapiens (Human), UniProt Q07343); experiment: PDE4 percent inhibition assay; type: biochemical; settings: for inhibition at 10 µM: read-out: PDE4 Isoform % Inhibition @ 10 μM PDE4B2
Protocol: as §1, §2, §3, §4, §5, §6, §7

PDE4C1 = PDE4C1 (Homo sapiens (Human), UniProt Q08493); experiment: PDE4 percent inhibition assay; type: biochemical; settings: for inhibition at 10 µM: read-out: PDE4 Isoform % Inhibition @ 10 μM PDE4C1
Protocol: as §1, §2, §3, §4, §5, §6, §7

SERT = SERT (Homo sapiens (Human), UniProt P31645); experiment: SERT inhibition assay (Neurotransmitter Transporter Fluorescence assay); type: cell-based; settings: class symbols; legend in nM/micromolar
Protocol: SERT inhibition was measured using a Neruotransmitter Transportation Fluorescence assay. Briefly, stable 5HHH cells were prepared in a 384 microwell plate. Compounds were prepared by in assay buffer (20 mM HEPES, 0.1% BSA). The compounds were added to the plated cells and incubated for 30 minutes at 37° C. 25 μL of dye solution (Molecular Devices Neurotransmitter Transporter Uptake Assay Kit) was added per well and incubated for 30 minutes at 37° C. The plates were then read on a plate reader.

[1] = in vivo; cited from earlier work

PDE4D2, sequence (Q08499 303-809, change not shown): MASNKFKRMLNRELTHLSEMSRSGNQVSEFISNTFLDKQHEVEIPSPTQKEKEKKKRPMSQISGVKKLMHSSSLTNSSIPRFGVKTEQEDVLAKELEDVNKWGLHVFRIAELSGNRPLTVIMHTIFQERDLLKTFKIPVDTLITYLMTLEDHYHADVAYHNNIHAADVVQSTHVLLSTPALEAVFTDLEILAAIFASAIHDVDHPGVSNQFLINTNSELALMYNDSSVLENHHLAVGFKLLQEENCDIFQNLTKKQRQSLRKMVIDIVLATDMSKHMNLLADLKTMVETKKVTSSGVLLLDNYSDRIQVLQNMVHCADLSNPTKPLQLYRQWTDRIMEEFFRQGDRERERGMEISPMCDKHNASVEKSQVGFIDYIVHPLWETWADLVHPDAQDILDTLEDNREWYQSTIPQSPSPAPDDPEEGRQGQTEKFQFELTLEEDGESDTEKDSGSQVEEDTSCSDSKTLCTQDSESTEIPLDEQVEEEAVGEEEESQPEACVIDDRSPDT
PDE4A1A, sequence (P27815 other isoform, or with tags, fused parts or gaps): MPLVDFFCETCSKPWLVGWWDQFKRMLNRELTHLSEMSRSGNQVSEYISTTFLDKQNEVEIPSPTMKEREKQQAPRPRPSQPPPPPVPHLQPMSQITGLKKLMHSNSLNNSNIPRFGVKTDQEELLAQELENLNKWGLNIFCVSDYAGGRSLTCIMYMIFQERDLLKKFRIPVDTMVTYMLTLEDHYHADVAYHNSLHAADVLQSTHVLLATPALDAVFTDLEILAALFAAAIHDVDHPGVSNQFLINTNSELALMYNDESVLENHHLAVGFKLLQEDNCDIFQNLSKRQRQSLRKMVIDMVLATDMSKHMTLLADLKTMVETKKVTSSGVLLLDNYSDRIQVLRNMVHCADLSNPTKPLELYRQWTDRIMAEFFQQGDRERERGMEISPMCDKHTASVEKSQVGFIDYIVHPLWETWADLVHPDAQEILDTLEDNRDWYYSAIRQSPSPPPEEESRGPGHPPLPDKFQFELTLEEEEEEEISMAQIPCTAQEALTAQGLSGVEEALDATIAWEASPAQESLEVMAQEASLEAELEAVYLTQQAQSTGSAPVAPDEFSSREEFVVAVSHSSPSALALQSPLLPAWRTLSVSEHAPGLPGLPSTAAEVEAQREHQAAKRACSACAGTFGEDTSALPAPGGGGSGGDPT
PDE4B2, sequence (Q07343 other isoform, or with tags, fused parts or gaps): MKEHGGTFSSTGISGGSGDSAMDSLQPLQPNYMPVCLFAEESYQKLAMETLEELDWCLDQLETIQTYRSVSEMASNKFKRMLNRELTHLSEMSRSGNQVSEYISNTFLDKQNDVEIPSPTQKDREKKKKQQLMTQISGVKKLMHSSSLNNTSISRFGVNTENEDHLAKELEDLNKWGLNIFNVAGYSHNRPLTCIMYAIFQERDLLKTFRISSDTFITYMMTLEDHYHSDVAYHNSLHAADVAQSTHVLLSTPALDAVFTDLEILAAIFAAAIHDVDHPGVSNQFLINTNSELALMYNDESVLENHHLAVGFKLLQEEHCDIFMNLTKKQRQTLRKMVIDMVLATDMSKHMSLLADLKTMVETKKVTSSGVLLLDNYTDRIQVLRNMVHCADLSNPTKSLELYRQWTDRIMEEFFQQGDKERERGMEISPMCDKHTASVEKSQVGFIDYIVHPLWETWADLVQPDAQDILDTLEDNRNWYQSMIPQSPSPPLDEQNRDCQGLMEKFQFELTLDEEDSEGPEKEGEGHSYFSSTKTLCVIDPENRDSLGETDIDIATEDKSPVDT
SERT, sequence (P31645 whole entry, species assumed): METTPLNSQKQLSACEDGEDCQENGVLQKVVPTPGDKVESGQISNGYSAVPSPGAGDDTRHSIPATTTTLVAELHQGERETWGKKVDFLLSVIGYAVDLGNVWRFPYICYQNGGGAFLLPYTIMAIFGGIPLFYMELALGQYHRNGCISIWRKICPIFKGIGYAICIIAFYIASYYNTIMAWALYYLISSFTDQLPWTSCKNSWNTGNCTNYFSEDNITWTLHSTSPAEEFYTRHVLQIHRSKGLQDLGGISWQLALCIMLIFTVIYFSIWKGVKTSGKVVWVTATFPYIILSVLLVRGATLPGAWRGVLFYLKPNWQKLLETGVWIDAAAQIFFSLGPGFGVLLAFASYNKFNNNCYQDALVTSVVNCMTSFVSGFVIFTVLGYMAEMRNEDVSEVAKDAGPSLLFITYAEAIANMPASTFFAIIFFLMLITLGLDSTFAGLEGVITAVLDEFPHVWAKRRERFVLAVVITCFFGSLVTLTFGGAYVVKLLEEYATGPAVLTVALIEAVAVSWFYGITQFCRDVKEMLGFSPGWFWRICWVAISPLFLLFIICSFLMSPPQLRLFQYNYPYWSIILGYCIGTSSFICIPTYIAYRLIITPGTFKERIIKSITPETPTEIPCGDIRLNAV
PDE4C1, sequence (Q08493 whole entry, canonical isoform): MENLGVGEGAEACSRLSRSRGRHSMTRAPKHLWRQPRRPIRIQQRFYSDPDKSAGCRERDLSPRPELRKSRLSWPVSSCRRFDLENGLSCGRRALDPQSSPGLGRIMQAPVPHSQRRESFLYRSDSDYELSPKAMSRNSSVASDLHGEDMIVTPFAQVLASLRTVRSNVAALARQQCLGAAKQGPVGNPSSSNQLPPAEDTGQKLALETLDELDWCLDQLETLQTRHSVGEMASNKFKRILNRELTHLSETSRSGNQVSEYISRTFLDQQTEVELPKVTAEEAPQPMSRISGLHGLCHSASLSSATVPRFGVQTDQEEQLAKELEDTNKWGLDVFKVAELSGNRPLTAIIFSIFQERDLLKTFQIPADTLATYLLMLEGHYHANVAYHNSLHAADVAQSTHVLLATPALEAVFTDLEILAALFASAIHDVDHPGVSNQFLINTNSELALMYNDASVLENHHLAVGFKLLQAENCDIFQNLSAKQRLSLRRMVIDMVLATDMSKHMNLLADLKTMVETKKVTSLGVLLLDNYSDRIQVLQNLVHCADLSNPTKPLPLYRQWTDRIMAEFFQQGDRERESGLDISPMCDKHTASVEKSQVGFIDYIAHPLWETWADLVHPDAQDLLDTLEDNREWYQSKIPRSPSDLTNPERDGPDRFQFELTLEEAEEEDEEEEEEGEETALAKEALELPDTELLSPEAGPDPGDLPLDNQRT

## COc1ccc([C@@]23CC[C@H](N4CCC4)C[C@@H]2N(C)CC3)cc1OC [Compound 104, (3aS,6S,7aS)-6-(azetidin-1-yl)-3a-(3,4-dimethoxyphenyl)-1-methyloctahydro-1H-indole]
PDE4A1A
  inhibition at 10 µM: < 30%
PDE4D2
  inhibition at 10 µM: < 30%
PDE4B2
  inhibition at 10 µM: < 30%
PDE4C1
  inhibition at 10 µM: < 30%
SERT
  IC50: 100 to 500 nM

## COc1ccc([C@@]23CC[C@@H](N4CCCC4=O)C[C@@H]2N(C)CC3)cc1OC [Compound 110, 1-((3aS,6R,7aS)-3a-(3,4-dimethoxyphenyl)-1-methyloctahydro-1H-indol-6-yl)pyrrolidin-2-one]
PDE4A1A
  inhibition at 10 µM: < 30%
PDE4D2
  inhibition at 10 µM: < 30%
PDE4B2
  inhibition at 10 µM: < 30%
PDE4C1
  inhibition at 10 µM: < 30%
SERT
  IC50: < 50 nM

## COc1ccc([C@@]23CC[C@H](n4cccn4)C[C@@H]2N(C)CC3)cc1OC [Compound 102, (3aS,6S,7aS)-3a-(3,4-dimethoxyphenyl)-1-methyl-6-(1H-pyrazol-1-yl)octahydro-1H-indole]
PDE4A1A
  inhibition at 10 µM: < 30%
PDE4D2
  inhibition at 10 µM: < 30%
PDE4B2
  inhibition at 10 µM: < 30%
PDE4C1
  inhibition at 10 µM: < 30%
SERT
  IC50: < 50 nM

## COc1ccc([C@@]23CCN(C)[C@H]2CC(=O)[C@@H]2O[C@@H]23)cc1OC (racemic) [Compound 208, rac-(1aR,3aS,6aS,6bR)-6a-(3,4-dimethoxyphenyl)-4-methyloctahydro-2H-oxireno[2,3-e]indol-2-one]
PDE4A1A
  inhibition at 10 µM: ≥ 70%
PDE4D2
  inhibition at 10 µM: ≥ 70%
PDE4B2
  inhibition at 10 µM: ≥ 70%
PDE4C1
  inhibition at 10 µM: ≥ 70%
SERT
  IC50: 50 to 100 nM

## COc1ccc([C@@]23CCN(C)[C@@H]2[C@H]2C[C@@H]3CC2=O)cc1OC [Compound 214]
PDE4A1A
  PDE4 Isoform % Inhibition @ 10 μM PDE4A1A: A (A if the % inhibition is greater than or equal to 70%)
PDE4D2
  PDE4 Isoform % Inhibition @ 10 μM PDE4D2: C (C is the percent inhibition is 30-50%)
PDE4B2
  PDE4 Isoform % Inhibition @ 10 μM PDE4B2: C (C is the percent inhibition is 30-50%)
PDE4C1
  PDE4 Isoform % Inhibition @ 10 μM PDE4C1: D (D if the percent inhibition is less than 30%)
SERT
  IC50: 100 to 500 nM

## COc1ccc([C@@]23CC[C@H](N4CCCCC4)C[C@@H]2N(C)CC3)cc1OC [Compound 107, (3aS,6S,7aS)-3a-(3,4-dimethoxyphenyl)-1-methyl-6-(piperidin-1-yl)octahydro-1H-indole]
PDE4A1A
  inhibition at 10 µM: < 30%
PDE4D2
  inhibition at 10 µM: < 30%
PDE4B2
  inhibition at 10 µM: < 30%
PDE4C1
  inhibition at 10 µM: < 30%
SERT
  IC50: > 1000 nM

## COc1ccc([C@]23CCN(C)[C@H]2CC(=O)C=C3c2ccccc2)cc1OC (racemic) [Compound 201, rac-(3aS,7aS)-3a-(3,4-dimethoxyphenyl)-1-methyl-4-phenyl-1,2,3,3a,7,7a-hexahydro-6H-indol-6-one]
PDE4A1A
  inhibition at 10 µM: ≥ 70%
PDE4D2
  inhibition at 10 µM: ≥ 70%
PDE4B2
  inhibition at 10 µM: ≥ 70%
PDE4C1
  inhibition at 10 µM: 30 to 50%
SERT
  IC50: > 1000 nM

## COc1ccc([C@]23CCN(C)[C@H]2[C@@H]2CCC[C@H]3CC2=O)cc1OC [Compound 218]
PDE4A1A
  PDE4 Isoform % Inhibition @ 10 μM PDE4A1A: D (D if the percent inhibition is less than 30%)
PDE4D2
  PDE4 Isoform % Inhibition @ 10 μM PDE4D2: D (D if the percent inhibition is less than 30%)
PDE4B2
  PDE4 Isoform % Inhibition @ 10 μM PDE4B2: D (D if the percent inhibition is less than 30%)
PDE4C1
  PDE4 Isoform % Inhibition @ 10 μM PDE4C1: D (D if the percent inhibition is less than 30%)
SERT
  IC50: < 50 nM

## COc1ccc([C@]23CCN(C)[C@H]2CC2(CCO2)CC3)cc1OC (stereo partly drawn) [Compound 118, (3aS,7aS)-3a-(3,4-dimethoxyphenyl)-1-methyloctahydrospiro[indole-6,2′-oxetane]]
PDE4A1A
  inhibition at 10 µM: 30 to 50%
PDE4D2
  inhibition at 10 µM: 30 to 50%
PDE4B2
  inhibition at 10 µM: < 30%
PDE4C1
  inhibition at 10 µM: 30 to 50%
SERT
  IC50: < 50 nM

## COc1ccc([C@@]23CC[C@H](N4CCOCC4)C[C@@H]2N(C)CC3)cc1OC [Compound 108, 4-((3aS,6S,7aS)-3a-(3,4-dimethoxyphenyl)-1-methyloctahydro-1H-indol-6-yl)morpholine]
PDE4A1A
  inhibition at 10 µM: < 30%
PDE4D2
  inhibition at 10 µM: < 30%
PDE4B2
  inhibition at 10 µM: < 30%
PDE4C1
  inhibition at 10 µM: < 30%
SERT
  IC50: 100 to 500 nM

## COc1ccc([C@]23CCN(C)[C@H]2CC(=O)[C@H]2O[C@H]23)cc1OC [Compound 209]
PDE4A1A
  PDE4 Isoform % Inhibition @ 10 μM PDE4A1A: A (A if the % inhibition is greater than or equal to 70%)
PDE4D2
  PDE4 Isoform % Inhibition @ 10 μM PDE4D2: A (A if the % inhibition is greater than or equal to 70%)
PDE4B2
  PDE4 Isoform % Inhibition @ 10 μM PDE4B2: A (A if the % inhibition is greater than or equal to 70%)
PDE4C1
  PDE4 Isoform % Inhibition @ 10 μM PDE4C1: A (A if the % inhibition is greater than or equal to 70%)
SERT
  IC50: < 50 nM

## COc1ccc([C@@]23CCN(C)[C@@H]2CC(=O)[C@@H]2O[C@@H]23)cc1OC [Compound 210]
PDE4A1A
  PDE4 Isoform % Inhibition @ 10 μM PDE4A1A: A (A if the % inhibition is greater than or equal to 70%)
PDE4D2
  PDE4 Isoform % Inhibition @ 10 μM PDE4D2: A (A if the % inhibition is greater than or equal to 70%)
PDE4B2
  PDE4 Isoform % Inhibition @ 10 μM PDE4B2: A (A if the % inhibition is greater than or equal to 70%)
PDE4C1
  PDE4 Isoform % Inhibition @ 10 μM PDE4C1: A (A if the % inhibition is greater than or equal to 70%)
SERT
  IC50: 100 to 500 nM

## COc1ccc([C@@]23CC[C@@H](n4ccc(C(F)(F)F)n4)C[C@@H]2N(C)CC3)cc1OC [Compound 115, (3aS,6R,7aS)-3a-(3,4-dimethoxyphenyl)-1-methyl-6-(3-(trifluoromethyl)-1H-pyrazol-1-yl)octahydro-1H-indole]
PDE4A1A
  inhibition at 10 µM: < 30%
PDE4D2
  inhibition at 10 µM: < 30%
PDE4B2
  inhibition at 10 µM: < 30%
PDE4C1
  inhibition at 10 µM: < 30%
SERT
  IC50: < 50 nM

## COc1ccc([C@@]23CCN(C)[C@@H]2[C@H]2CCC[C@@H]3CC2=O)cc1OC [Compound 219]
PDE4A1A
  PDE4 Isoform % Inhibition @ 10 μM PDE4A1A: C (C is the percent inhibition is 30-50%)
PDE4D2
  PDE4 Isoform % Inhibition @ 10 μM PDE4D2: C (C is the percent inhibition is 30-50%)
PDE4B2
  PDE4 Isoform % Inhibition @ 10 μM PDE4B2: C (C is the percent inhibition is 30-50%)
PDE4C1
  PDE4 Isoform % Inhibition @ 10 μM PDE4C1: B (B if the percent inhibition is 50-70%)
SERT
  IC50: 100 to 500 nM

## COc1ccc([C@@]23CCC(=O)C[C@@H]2N(C)CC3)cc1OC [(−) mesembrine]
[1]
  half-life in plasma: less than 2 hours

## COc1ccc([C@@]23CCN(C)[C@@H]2CC(=O)C[C@@H]3c2ccccc2)cc1OC [Compound 206]
PDE4A1A
  PDE4 Isoform % Inhibition @ 10 μM PDE4A1A: A (A if the % inhibition is greater than or equal to 70%)
PDE4D2
  PDE4 Isoform % Inhibition @ 10 μM PDE4D2: A (A if the % inhibition is greater than or equal to 70%)
PDE4B2
  PDE4 Isoform % Inhibition @ 10 μM PDE4B2: A (A if the % inhibition is greater than or equal to 70%)
PDE4C1
  PDE4 Isoform % Inhibition @ 10 μM PDE4C1: B (B if the percent inhibition is 50-70%)
SERT
  IC50: > 1000 nM
